# Counter-ions that a name gives are not always drawn.
# Key:
# [1] = tested on: ocular mucous membranes; assay type: in vivo, New Zealand white rabbits; settings: 0.1 ml aqueous solution dropped into eyelid bag, checked 24 hours after; four male rabbits
# Description: (§1) The primary irritation of the skin and ocular mucous membranes by some test compounds mentioned below was checked according to the test methods mentioned below.
# The lower eyelids of each of four male New Zealand white rabbits were formed into bags, into which was dropped 0.1 ml of an aqueous surfactant solution, and the upper and lower eyelids were lightly ligated. 24 hours after the dropping, the irritation of the ocular mucous membranes of each rabbit was checked according to the Draize's points mentioned below. The compound tested was evaluated on the basis of the following criteria.
# [2] = tested on: skin; assay type: in vivo, New Zealand white rabbits; settings: 0.3 ml of aqueous 1 % solution, patch 24 hours, observed 24 hours; four male rabbits
# Description: as §1
# A patch test plaster, into which 0.3 ml of an aqueous 1 % solution of a test compound had been infiltrated, was airtightly stuck on each of four male New Zealand white rabbits and kept as such for 24 hours. […] The compounds tested were evaluated on the basis of the following criteria.
SMILES,Primary Mucous Membrane Irritation [1],Primary Skin Irritation [2]
"CCCCCCCCCCCCCCCCCC[N+](C)(C)C.[Cl-] [Stearyltrimethylammonium Chloride, reference compound]",Moderate (20 to less than 50),Heavy (4 or more)
"CCCCCCCCCCC(O)CN[C@@H](CCCNC(=N)N)C(=O)O.Cl (stereo partly drawn) [Compound of Production Example 7, N-(2-hydroxydodecyl)-L-arginine hydrochloride]",Minor (Less than 10),Minor (Less than 2)
"CCCCCCCCCCCCOCC(O)CNCCCC[C@H](N)C(=O)O (stereo partly drawn) [Compound of Production Example 5, Nε-(2-hydroxy-3-dodecyloxy)propyl-L-lysine hydrochloride]",Minor (Less than 10),Minor (Less than 2)

# Source: patent EP0895778A2, “Cosmetic composition” (Ajinomoto Co., Inc., priority 1997, dated 1999)
